Experimental data taken from patent US20090239841A1, “Diaryl Ureas as CB1 Antagonists” (priority 2004, published 2009).

Target: T1, hCB1 (Homo sapiens, UniProt P21554)
T1 construct: made in house; host or cells: Sf9 insect cells (baculovirus), P2 membranes
Assay: Agonist-induced GTP binding (GTPγ35S) assay at CB1, Example 8
Assay type: biochemical
Settings: IC50 at CB1, determined as described in Example 8; read-out: IC50
How it was run: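 Membranes from Sf9 cells co-expressing hCB1 and heterotrimeric G-protein (10 μg protein) in Tris pH 7.4 buffer with 5 μM GDP. Test compounds (10^−10–10^−5 M) competed against 1 nM CP55,940 with […] GTPγ35S, 60 min at room temperature. Filter-bound radioactivity by scintillation, expressed as percent above basal.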

T1 sequence (P21554 whole entry): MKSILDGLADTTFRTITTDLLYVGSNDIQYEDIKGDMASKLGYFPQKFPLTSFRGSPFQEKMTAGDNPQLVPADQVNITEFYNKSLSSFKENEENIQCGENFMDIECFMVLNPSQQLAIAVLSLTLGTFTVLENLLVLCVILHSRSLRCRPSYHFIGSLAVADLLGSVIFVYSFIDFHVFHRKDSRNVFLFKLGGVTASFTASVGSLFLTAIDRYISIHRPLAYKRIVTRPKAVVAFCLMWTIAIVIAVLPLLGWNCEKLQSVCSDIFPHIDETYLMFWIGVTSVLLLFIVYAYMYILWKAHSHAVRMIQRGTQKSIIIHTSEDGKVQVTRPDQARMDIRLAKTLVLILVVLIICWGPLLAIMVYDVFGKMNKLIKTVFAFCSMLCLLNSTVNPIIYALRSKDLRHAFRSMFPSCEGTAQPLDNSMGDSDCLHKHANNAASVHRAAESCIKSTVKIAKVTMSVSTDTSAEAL

Row | Compound | IC50 [µM]
1 | CCOc1ccc(NC(=O)Nc2cccc(F)c2)cc1 [Compound 357, 1-(4-ethoxyphenyl)-3-(3-fluorophenyl)urea] | < 2
2 | CCOc1ccc(NC(=O)Nc2ccc(F)cc2)cc1 [Compound 358, 1-(4-ethoxyphenyl)-3-(4-fluorophenyl)urea] | < 2
3 | COCc1ccc(NC(=O)Nc2ccc(C)cc2)cc1 [Compound 359, 1-[4-(methoxymethyl)phenyl]-3-(4-methylphenyl)urea] | < 2
4 | COCc1ccc(NC(=O)Nc2cccc(F)c2)cc1 [Compound 360, 1-(3-fluorophenyl)-3-[4-(methoxymethyl)phenyl]urea] | < 2
5 | CCCOc1ccc(NC(=O)Nc2cccc(F)c2)cc1 [Compound 361, 1-(3-fluorophenyl)-3-(4-propoxyphenyl)urea] | < 2
6 | CCCOc1ccc(NC(=O)Nc2ccc(F)cc2)cc1 [Compound 362, 1-(4-fluorophenyl)-3-(4-propoxyphenyl)urea] | < 2
7 | CC(C)Oc1cccc(NC(=O)Nc2cccc(F)c2)c1 [Compound 363, 1-(3-fluorophenyl)-3-(3-isopropoxyphenyl)urea] | < 2
8 | CC(C)Oc1cccc(NC(=O)Nc2ccc(F)cc2)c1 [Compound 364, 1-(4-fluorophenyl)-3-(3-isopropoxyphenyl)urea] | < 2
9 | Cc1cccc(NC(=O)Nc2ccc(OC(C)C)cc2)c1 [Compound 365, 1-(4-isopropoxyphenyl)-3-(3-methylphenyl)urea] | < 2
10 | Cc1ccc(NC(=O)Nc2ccc(OC(C)C)cc2)cc1 [Compound 366, 1-(4-isopropoxyphenyl)-3-(4-methylphenyl)urea] | < 2
11 | CC(C)Oc1ccc(NC(=O)Nc2cccc(F)c2)cc1 [Compound 367, 1-(3-fluorophenyl)-3-(4-isopropoxyphenyl)urea] | < 2
12 | CC(C)Oc1ccc(NC(=O)Nc2ccc(F)cc2)cc1 [Compound 368, 1-(4-fluorophenyl)-3-(4-isopropoxyphenyl)urea] | < 2
13 | Cc1cccc(NC(=O)Nc2cccc(OC(F)F)c2)c1 [Compound 369, 1-[3-(difluoromethoxy)phenyl]-3-(3-methylphenyl)urea] | < 2
14 | Cc1ccc(NC(=O)Nc2cccc(OC(F)F)c2)cc1 [Compound 370, 1-[3-(difluoromethoxy)phenyl]-3-(4-methylphenyl)urea] | < 2
15 | O=C(Nc1cccc(F)c1)Nc1cccc(OC(F)F)c1 [Compound 371, 1-[3-(difluoromethoxy)phenyl]-3-(3-fluorophenyl)urea] | < 2
16 | O=C(Nc1ccc(F)cc1)Nc1cccc(OC(F)F)c1 [Compound 372, 1-[3-(difluoromethoxy)phenyl]-3-(4-fluorophenyl)urea] | < 2
17 | O=C(Nc1ccc(F)cc1)Nc1ccc(OC(F)F)cc1 [Compound 373, 1-[4-(difluoromethoxy)phenyl]-3-(4-fluorophenyl)urea] | < 2
18 | CCOc1cccc(NC(=O)Nc2ccccc2)c1 [Compound 374, 1-(3-ethoxyphenyl)-3-phenylurea] | < 2
19 | CC(C)Oc1ccc(NC(=O)Nc2ccccc2)cc1 [Compound 375, 1-(4-isopropoxyphenyl)-3-phenylurea] | < 2
20 | O=C(Nc1ccccc1)Nc1cccc(OC(F)F)c1 [Compound 376, 1-[3-(difluoromethoxy)phenyl]-3-phenylurea] | < 2

Row | Compound | IC50 [µM]
21 | Cc1ccccc1NC(=O)Nc1cccc(OC(F)F)c1 [Compound 377, 1-[3-(difluoromethoxy)phenyl]-3-(2-methylphenyl)urea] | < 2
22 | CCc1ccccc1NC(=O)Nc1cccc(OC(F)F)c1 [Compound 378, 1-[3-(difluoromethoxy)phenyl]-3-(2-ethylphenyl)urea] | < 2
23 | CCc1ccc(NC(=O)Nc2ccc(OC)cc2)cc1 [Compound 382, 1-(4-ethylphenyl)-3-(4-methoxyphenyl)urea] | < 2
24 | COc1ccc(NC(=O)Nc2ccc(Cl)cc2)cc1 [Compound 383, 1-(4-chlorophenyl)-3-(4-methoxyphenyl)urea] | < 2
25 | CCOc1cccc(NC(=O)Nc2cccc(CC)c2)c1 [Compound 384, 1-(3-ethoxyphenyl)-3-(3-ethylphenyl)urea] | < 2
26 | CCOc1cccc(NC(=O)Nc2ccc(CC)cc2)c1 [Compound 385, 1-(3-ethoxyphenyl)-3-(4-ethylphenyl)urea] | < 2
27 | CCOc1cccc(NC(=O)Nc2ccc(Cl)cc2)c1 [Compound 386, 1-(4-chlorophenyl)-3-(3-ethoxyphenyl)urea] | < 2
28 | CCOc1ccc(NC(=O)Nc2cccc(CC)c2)cc1 [Compound 387, 1-(4-ethoxyphenyl)-3-(3-ethylphenyl)urea] | < 2
29 | CCOc1ccc(NC(=O)Nc2ccc(CC)cc2)cc1 [Compound 388, 1-(4-ethoxyphenyl)-3-(4-ethylphenyl)urea] | < 2
30 | CCOc1ccc(NC(=O)Nc2cccc(Cl)c2)cc1 [Compound 389, 1-(3-chlorophenyl)-3-(4-ethoxyphenyl)urea] | < 2
31 | CCOc1ccc(NC(=O)Nc2ccc(Cl)cc2)cc1 [Compound 390, 1-(4-chlorophenyl)-3-(4-ethoxyphenyl)urea] | < 2
32 | CCc1ccc(NC(=O)Nc2cccc(COC)c2)cc1 [Compound 391, 1-(4-ethylphenyl)-3-[3-(methoxymethyl)phenyl]urea] | < 2
33 | CCc1cccc(NC(=O)Nc2ccc(COC)cc2)c1 [Compound 392, 1-(3-ethylphenyl)-3-[4-(methoxymethyl)phenyl]urea] | < 2
34 | CCc1ccc(NC(=O)Nc2ccc(COC)cc2)cc1 [Compound 393, 1-(4-ethylphenyl)-3-[4-(methoxymethyl)phenyl]urea] | < 2
35 | COCc1ccc(NC(=O)Nc2cccc(Cl)c2)cc1 [Compound 394, 1-(3-chlorophenyl)-3-[4-(methoxymethyl)phenyl]urea] | < 2
36 | COCc1ccc(NC(=O)Nc2ccc(Cl)cc2)cc1 [Compound 395, 1-(4-chlorophenyl)-3-[4-(methoxymethyl)phenyl]urea] | < 2
37 | CCCOc1ccc(NC(=O)Nc2cccc(CC)c2)cc1 [Compound 396, 1-(3-ethylphenyl)-3-(4-propoxyphenyl)urea] | < 2
38 | CCCOc1ccc(NC(=O)Nc2cccc(Cl)c2)cc1 [Compound 397, 1-(3-chlorophenyl)-3-(4-propoxyphenyl)urea] | < 2
39 | CCCOc1ccc(NC(=O)Nc2ccc(Cl)cc2)cc1 [Compound 398, 1-(4-chlorophenyl)-3-(4-propoxyphenyl)urea] | < 2
40 | CCc1cccc(NC(=O)Nc2cccc(OC(C)C)c2)c1 [Compound 399, 1-(3-ethylphenyl)-3-(3-isopropoxyphenyl)urea] | < 2

Row | Compound | IC50 [µM]
41 | CC(C)Oc1cccc(NC(=O)Nc2cccc(Cl)c2)c1 [Compound 400, 1-(3-chlorophenyl)-3-(3-isopropoxyphenyl)urea] | < 2
42 | CC(C)Oc1cccc(NC(=O)Nc2ccc(Cl)cc2)c1 [Compound 401, 1-(4-chlorophenyl)-3-(3-isopropoxyphenyl)urea] | < 2
43 | CCc1cccc(NC(=O)Nc2ccc(OC(C)C)cc2)c1 [Compound 402, 1-(3-ethylphenyl)-3-(4-isopropoxyphenyl)urea] | < 2
44 | CCc1ccc(NC(=O)Nc2ccc(OC(C)C)cc2)cc1 [Compound 403, 1-(4-ethylphenyl)-3-(4-isopropoxyphenyl)urea] | < 2
45 | CC(C)Oc1ccc(NC(=O)Nc2cccc(Cl)c2)cc1 [Compound 404, 1-(3-chlorophenyl)-3-(4-isopropoxyphenyl)urea] | < 2
46 | CC(C)Oc1ccc(NC(=O)Nc2ccc(Cl)cc2)cc1 [Compound 405, 1-(4-chlorophenyl)-3-(4-isopropoxyphenyl)urea] | < 2
47 | CCc1cccc(NC(=O)Nc2cccc(OC(F)F)c2)c1 [Compound 406, 1-[3-(difluoromethoxy)phenyl]-3-(3-ethylphenyl)urea] | < 2
48 | CCc1ccc(NC(=O)Nc2cccc(OC(F)F)c2)cc1 [Compound 407, 1-[3-(difluoromethoxy)phenyl]-3-(4-ethylphenyl)urea] | < 2
49 | COc1cccc(NC(=O)Nc2ccc(C(C)=O)cc2)c1 [Compound 408, 1-(4-acetylphenyl)-3-(3-methoxyphenyl)urea] | < 2
50 | COc1ccc(NC(=O)Nc2cccc(C#N)c2)cc1 [Compound 409, 1-(3-cyanophenyl)-3-(4-methoxyphenyl)urea] | < 2
51 | COc1ccc(NC(=O)Nc2ccc(C(C)=O)cc2)cc1 [Compound 410, 1-(4-acetylphenyl)-3-(4-methoxyphenyl)urea] | < 2
52 | CCOc1ccc(NC(=O)Nc2ccc(C#N)cc2)cc1 [Compound 411, 1-(4-cyanophenyl)-3-(4-ethoxyphenyl)urea] | < 2
53 | CCOc1ccc(NC(=O)Nc2cccc(C(C)=O)c2)cc1 [Compound 412, 1-(3-acetylphenyl)-3-(4-ethoxyphenyl)urea] | < 2
54 | CCOc1ccc(NC(=O)Nc2ccc(C(C)=O)cc2)cc1 [Compound 413, 1-(4-acetylphenyl)-3-(4-ethoxyphenyl)urea] | < 2
55 | COCc1ccc(NC(=O)Nc2cccc(C(C)=O)c2)cc1 [Compound 414, 1-(3-acetylphenyl)-3-[4-(methoxymethyl)phenyl]urea] | < 2
56 | COCc1ccc(NC(=O)Nc2ccc(C(C)=O)cc2)cc1 [Compound 415, 1-(4-acetylphenyl)-3-[4-(methoxymethyl)phenyl]urea] | < 2
57 | CCCOc1ccc(NC(=O)Nc2cccc(C(C)=O)c2)cc1 [Compound 416, 1-(3-acetylphenyl)-3-(4-propoxyphenyl)urea] | < 2
58 | CCCOc1ccc(NC(=O)Nc2ccc(C(C)=O)cc2)cc1 [Compound 417, 1-(4-acetylphenyl)-3-(4-propoxyphenyl)urea] | < 2
59 | CC(C)Oc1cccc(NC(=O)Nc2cccc(C#N)c2)c1 [Compound 418, 1-(3-cyanophenyl)-3-(3-isopropoxyphenyl)urea] | < 2
